In ChEMBL document CHEMBL1201862, “PubChem BioAssay data set” (2004):
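How tested: cells in 96-well plates exposed to compound for 48 hours at five concentrations. GI50 is the concentration that inhibits growth by half.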 Calls of active or inactive are those of the source. Cut-off read from the data, not from the text of the source: active = GI50 up to about 1.1 µM and inactive = higher.

How the values were obtained:
Experiment in all cases: NCI-60 cell line screen, 48 h
786-0 = system: 786-0
A498 = system: A498
A549 = system: A549
ACHN = system: ACHN
BT-549 = system: BT-549
CAKI-1 = system: CAKI-1
CCRF-CEM = system: CCRF-CEM
COLO 205 = system: COLO 205
DU-145 = system: DU-145
EKVX = system: EKVX
HCC 2998 = system: HCC 2998
HCT-116 = system: HCT-116
HCT-15 = system: HCT-15
HOP-62 = system: HOP-62
HOP-92 = system: HOP-92
HT-29 = system: HT-29
IGROV-1 = system: IGROV-1
K562 = system: K562
KM12 = system: KM12
LOX IMVI = system: LOX IMVI
M14 = system: M14
MCF7 = system: MCF7
MDA-MB-231 = system: MDA-MB-231
MDA-MB-435 = system: MDA-MB-435
MDA-N = system: MDA-N
MOLT-4 = system: MOLT-4
Malme-3M = system: Malme-3M
NCI-H226 = system: NCI-H226
NCI-H23 = system: NCI-H23
NCI-H460 = system: NCI-H460
NCI-H522 = system: NCI-H522
NCI/ADR-RES = system: NCI/ADR-RES
OVCAR-3 = system: OVCAR-3
OVCAR-4 = system: OVCAR-4
OVCAR-5 = system: OVCAR-5
OVCAR-8 = system: OVCAR-8
PC-3 = system: PC-3
RPMI-8226 = system: RPMI-8226
RXF 393 = system: RXF 393
SF-268 = system: SF-268
SF-295 = system: SF-295
SF-539 = system: SF-539
SK-MEL-28 = system: SK-MEL-28
SK-MEL-2 = system: SK-MEL-2
SK-MEL-5 = system: SK-MEL-5
SK-OV-3 = system: SK-OV-3
SN12C = system: SN12C
SNB-19 = system: SNB-19
SNB-75 = system: SNB-75
SR = system: SR
SW-620 = system: SW-620
T47D = system: T47D
TK-10 = system: TK-10
U-251 = system: U-251
UACC-257 = system: UACC-257
UACC-62 = system: UACC-62
UO-31 = system: UO-31

**Q.** Which GI50 (786-0) does the source give for `Cc1[nH]c2c(c1C)S(=O)(=O)c1cc3ccccc3nc1N2` here?
**A.** The GI50 was 16.6 µM (inactive).

**Q.** What about the GI50 (A498) of the same compound?
**A.** The GI50 was 73.8 µM (inactive).

**Q.** And the GI50 (A549)?
**A.** Its GI50 is 36.3 µM (inactive).

**Q.** And the GI50 (ACHN)?
**A.** The GI50 was 29.5 µM (inactive).

**Q.** What about the GI50 (BT-549) of the same compound?
**A.** Its GI50 is 69.8 µM (inactive).

**Q.** And the GI50 (CAKI-1)?
**A.** The GI50 was 30.5 µM (inactive).

**Q.** What about the GI50 (CCRF-CEM) of the same compound?
**A.** The GI50 was 5.09 µM (inactive).

**Q.** What about the GI50 (COLO 205) of the same compound?
**A.** The GI50 was 20 µM (inactive).

**Q.** And the GI50 (DU-145)?
**A.** The GI50 was 24.9 µM (inactive).

**Q.** And the GI50 (EKVX)?
**A.** Its GI50 is 36.7 µM (inactive).

**Q.** And the GI50 (HCC 2998)?
**A.** Its GI50 is 65.2 µM (inactive).

**Q.** What about the GI50 (HCT-116) of the same compound?
**A.** The GI50 was 15.8 µM (inactive).

**Q.** What about the GI50 (HCT-15) of the same compound?
**A.** Its GI50 is 22.1 µM.

**Q.** What about the GI50 (HOP-62) of the same compound?
**A.** The GI50 was 18.2 µM (inactive).

**Q.** What about the GI50 (HOP-92) of the same compound?
**A.** Its GI50 is 25.4 µM (inactive).

**Q.** And the GI50 (HT-29)?
**A.** Its GI50 is 15 µM (inactive).

**Q.** And the GI50 (IGROV-1)?
**A.** The GI50 was 10.1 µM (inactive).

**Q.** And the GI50 (K562)?
**A.** Its GI50 is 10.9 µM (inactive).

**Q.** And the GI50 (KM12)?
**A.** The GI50 was 27.9 µM (inactive).

**Q.** What about the GI50 (LOX IMVI) of the same compound?
**A.** Its GI50 is 10.6 µM (inactive).

**Q.** What about the GI50 (M14) of the same compound?
**A.** Its GI50 is 20 µM (inactive).

**Q.** And the GI50 (MCF7)?
**A.** The GI50 was 5.15 µM (inactive).

**Q.** What about the GI50 (MDA-MB-231) of the same compound?
**A.** The GI50 was 27.8 µM (inactive).

**Q.** What about the GI50 (MDA-MB-435) of the same compound?
**A.** The GI50 was 26.4 µM (inactive).

**Q.** And the GI50 (MDA-N)?
**A.** The GI50 was 15.7 µM (inactive).

**Q.** What about the GI50 (MOLT-4) of the same compound?
**A.** Its GI50 is > 100 µM (inactive).

**Q.** What about the GI50 (Malme-3M) of the same compound?
**A.** The GI50 was 16.6 µM (inactive).

**Q.** And the GI50 (NCI-H226)?
**A.** The GI50 was 22 µM (inactive).

**Q.** What about the GI50 (NCI-H23) of the same compound?
**A.** Its GI50 is 23.9 µM (inactive).

**Q.** And the GI50 (NCI-H460)?
**A.** Its GI50 is 18.7 µM (inactive).

**Q.** And the GI50 (NCI-H522)?
**A.** Its GI50 is 21.4 µM (inactive).

**Q.** What about the GI50 (NCI/ADR-RES) of the same compound?
**A.** The GI50 was 32.3 µM (inactive).

**Q.** And the GI50 (OVCAR-3)?
**A.** The GI50 was 19.9 µM (inactive).

**Q.** And the GI50 (OVCAR-4)?
**A.** Its GI50 is 14.3 µM (inactive).

**Q.** What about the GI50 (OVCAR-5) of the same compound?
**A.** Its GI50 is 19.7 µM (inactive).

**Q.** What about the GI50 (OVCAR-8) of the same compound?
**A.** The GI50 was 12.3 µM (inactive).

**Q.** And the GI50 (PC-3)?
**A.** The GI50 was 34.3 µM (inactive).

**Q.** What about the GI50 (RPMI-8226) of the same compound?
**A.** The GI50 was 14.7 µM (inactive).

**Q.** What about the GI50 (RXF 393) of the same compound?
**A.** The GI50 was 19.3 µM (inactive).

**Q.** And the GI50 (SF-268)?
**A.** The GI50 was 28.1 µM (inactive).

**Q.** What about the GI50 (SF-295) of the same compound?
**A.** The GI50 was 27.3 µM (inactive).

**Q.** And the GI50 (SF-539)?
**A.** The GI50 was 6.81 µM (inactive).

**Q.** What about the GI50 (SK-MEL-28) of the same compound?
**A.** The GI50 was 25.5 µM (inactive).

**Q.** And the GI50 (SK-MEL-2)?
**A.** Its GI50 is 55.3 µM (inactive).

**Q.** What about the GI50 (SK-MEL-5) of the same compound?
**A.** The GI50 was 14.6 µM (inactive).

**Q.** What about the GI50 (SK-OV-3) of the same compound?
**A.** The GI50 was 30.8 µM (inactive).

**Q.** And the GI50 (SN12C)?
**A.** The GI50 was 16.4 µM (inactive).

**Q.** And the GI50 (SNB-19)?
**A.** Its GI50 is 26.2 µM (inactive).

**Q.** What about the GI50 (SNB-75) of the same compound?
**A.** The GI50 was 17.3 µM (inactive).

**Q.** What about the GI50 (SR) of the same compound?
**A.** The GI50 was 17.1 µM (inactive).

**Q.** What about the GI50 (SW-620) of the same compound?
**A.** The GI50 was 40.4 µM (inactive).

**Q.** What about the GI50 (T47D) of the same compound?
**A.** Its GI50 is > 100 µM (inactive).

**Q.** And the GI50 (TK-10)?
**A.** The GI50 was 37.7 µM (inactive).

**Q.** And the GI50 (U-251)?
**A.** The GI50 was 11.2 µM (inactive).

**Q.** What about the GI50 (UACC-257) of the same compound?
**A.** Its GI50 is 35.9 µM (inactive).

**Q.** And the GI50 (UACC-62)?
**A.** Its GI50 is 42.7 µM (inactive).

**Q.** What about the GI50 (UO-31) of the same compound?
**A.** The GI50 was 21.6 µM (inactive).
